These are literature values, as cited in patent US20220168121A1, “FIBROSIS-INDUCING DRUG-ELUTING STENT FOR BLOCKING ELECTRIC CONDUCTION” (SUNGKWANG MEDICAL FOUNDATION, priority 2019, published 2022).

Structures can show the parent of a compound that is named as a salt.

Regarding `CCCCC(CC)CCC(CC(C)C)OS(=O)(=O)O` (stereo not drawn) [sodium tetradecyl sulfate], the water solubility entry is “water soluble”. In addition, for the setting “solid state”, the “stability in a solid state” value was “unstable properties in a solid state”.
In the case of `CCCCCCCCCCCCCCOS(=O)(=O)O` [sodium tetradecyl sulfate], the water solubility result is recorded as “water insoluble”.
